For orientation: Emax means the size of the effect at its maximum, as opposed to the concentration needed.

The results in this text go back to patent US20210300900A1, “OGA INHIBITOR COMPOUNDS” (Janssen Pharmaceutica NV, priority 2018, published 2021).

The experiment addresses T1, recombinant human Meningioma Expressed Antigen 5 (MGEA5), also referred to as O-GcNAcase (OGA) (Homo sapiens, UniProt O60502).
T1 construct: Full length OGA enzyme was purchased at OnGene (cat #TP322411); purchased OnGene (so in the source)
T1 sequence (O60502 1-916): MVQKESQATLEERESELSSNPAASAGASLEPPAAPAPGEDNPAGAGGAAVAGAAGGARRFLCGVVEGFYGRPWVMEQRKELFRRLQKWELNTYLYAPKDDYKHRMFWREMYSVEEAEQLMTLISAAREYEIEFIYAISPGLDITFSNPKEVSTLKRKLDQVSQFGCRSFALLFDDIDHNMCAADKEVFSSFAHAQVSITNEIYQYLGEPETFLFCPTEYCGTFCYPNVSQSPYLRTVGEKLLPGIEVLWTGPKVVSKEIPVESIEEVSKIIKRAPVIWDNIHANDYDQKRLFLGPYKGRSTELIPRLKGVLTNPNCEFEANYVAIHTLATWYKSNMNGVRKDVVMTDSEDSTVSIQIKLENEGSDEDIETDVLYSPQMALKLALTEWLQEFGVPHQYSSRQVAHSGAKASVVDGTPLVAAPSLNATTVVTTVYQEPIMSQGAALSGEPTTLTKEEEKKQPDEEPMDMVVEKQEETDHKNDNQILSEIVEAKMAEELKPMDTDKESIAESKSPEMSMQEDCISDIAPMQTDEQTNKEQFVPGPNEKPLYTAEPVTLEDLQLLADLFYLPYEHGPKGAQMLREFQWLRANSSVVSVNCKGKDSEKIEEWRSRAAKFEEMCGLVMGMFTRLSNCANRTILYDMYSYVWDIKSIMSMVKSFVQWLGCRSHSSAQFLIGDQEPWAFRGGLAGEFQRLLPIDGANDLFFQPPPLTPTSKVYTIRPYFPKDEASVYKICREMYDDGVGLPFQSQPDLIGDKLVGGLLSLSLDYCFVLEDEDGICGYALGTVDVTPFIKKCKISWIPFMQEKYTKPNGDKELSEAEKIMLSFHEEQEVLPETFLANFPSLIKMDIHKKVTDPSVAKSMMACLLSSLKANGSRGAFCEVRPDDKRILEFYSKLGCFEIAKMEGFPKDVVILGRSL
Briefly: OGA biochemical assay (inhibition of FM-GlcNAc hydrolysis, fluorescence). Particulars: FM-GlcNAc substrate; for Emax: read-out: Enzymatic Emax (%); for IC50: read-out: Enzymatic hOGA, pIC50 (converted). From the text: The assay is based on the inhibition of the hydrolysis of fluorescein mono-β-D-N-Acetyl-Glucosamine (FM-GlcNAc) (Mariappa et al. 2015, Biochem J 470:255) by the recombinant human Meningioma Expressed Antigen 5 (MGEA5), also referred to as O-GcNAcase (OGA). The hydrolysis FM-GlcNAc (Marker Gene technologies, cat #M1485) results in the formation of B-D-N-glucosamineacetate and fluorescein. The fluorescence of the latter can be measured at excitation wavelength 485 nm and emission wavelength 538 nm. An increase in enzyme activity results in an increase in fluorescence signal. Full length OGA enzyme was purchased at OnGene (cat #TP322411). The enzyme was stored in 25 mM Tris.HCl, pH 7.3, 100 mM glycine, 10% glycerol at −20° C. Thiamet G and GlcNAcStatin were tested as reference compounds (Yuzwa et al. 2008 Nature Chemical Biology 4:483; Yuzwa et al. 2012 Nature Chemical Biology 8:393). The assay was performed in 200 mM Citrate/phosphate buffer supplemented with 0.005% Tween-20. 35.6 g Na2HPO4 2H2O (Sigma, #C0759) were dissolved in 1 L water to obtain a 200 mM solution. 19.2 g citric acid (Merck, #1.06580) was dissolved in 1 L water to obtain a 100 mM solution. pH of the sodiumphosphate solution was adjusted with the citric acid solution to 7.2. The buffer to stop the reaction consists of a 500 mM Carbonate buffer, pH 11.0. 734 mg FM-GlcNAc were dissolved in 5.48 mL DMSO to obtain a 250 mM solution and was stored at −20° C. OGA was used at a 2 nM concentration and FM-GlcNAc at a 100 uM final concentration. Dilutions were prepared in assay buffer.
50 nl of a compound dissolved in DMSO was dispensed on Black Proxiplate TM 384 Plus Assay plates (Perkin Elmer, #6008269) and 3 μl fl-OGA enzyme mix added subsequently. Plates were pre-incubated for 60 min at room temperature and then 2 μl FM-GlcNAc substrate mix added. […] Plates were briefly centrifuged for 1 min at 1000 rpm and incubate at room temperature for 6 h. To stop the reaction 5 μl STOP buffer were added and plates centrifuge again 1 min at 1000 rpm. Fluorescence was quantified in the Thermo Scientific Fluoroskan Ascent or the PerkinElmer EnVision with excitation wavelength 485 nm and emission wavelength 538 nm.
For analysis a best-fit curve is fitted by a minimum sum of squares method. From this an IC50 value and Hill coefficient was obtained. High control (no inhibitor) and low control (saturating concentrations of standard inhibitor) were used to define the minimum and maximum values.

Regarding `COc1cncc(C[C@H]2CCN(C(C)c3cccc(OC)n3)C2)c1` (mixture of isomers) [Product 143], the Emax was 38% and the IC50 is > 10 µM.
The like results for `COc1cccc(C(C)N2CC[C@H](Cc3cncc(F)c3)C2)n1` (mixture of isomers) [Product 144] were, in that order, 43.4% and > 10 µM.
The matching figures for `COc1cccc(C(C)N2CC[C@H](Cc3cccnc3C(F)(F)F)C2)n1` (mixture of isomers) [Product 145]: 44.3% and > 10 µM.
The matching figures for `COc1cccc(C(C)N2CC[C@H](Cc3ccncc3F)C2)n1` (mixture of isomers) [Product 146]: 33.1% and > 10 µM.
Consider `COc1cccc(C(C)N2CC[C@H](Cc3cccc(C(F)(F)F)n3)C2)n1` (mixture of isomers) [Product 147], for which the Emax was determined as 14.4% and the IC50 is > 10 µM.
The like results for `COc1cccc(C(C)N2CC[C@H](Cc3ncccc3F)C2)n1` (mixture of isomers) [Product 148] were, in that order, 11.3% and > 10 µM.
Turning to `COc1cccc(C[C@H]2CCN(C(C)c3cccc(OC)n3)C2)n1` (mixture of isomers) [Product 149], the Emax amounted to 30.3% and the IC50 is > 10 µM.
The like results for `COc1ccc(C[C@H]2CCN(C(C)c3cccc(OC)n3)C2)nc1` (mixture of isomers) [Product 150] were, in that order, 46% and > 10 µM.
The like results for `COc1cccc(C(C)N2CC[C@H](Cc3ncccc3OC)C2)n1` (mixture of isomers) [Product 151] were, in that order, 11.8% and > 10 µM.
The like results for `CNC(=O)c1nc(C(C)N2CC[C@@H](Cc3cc(C)nc(C)c3)C2)c[nH]1` (mixture of isomers) [Product 163] were, in that order, 29% and > 10 µM.
`CCOc1cc(C[C@@H]2CCN(C(C)c3c[nH]c(OCC)n3)C2)ccn1` (mixture of isomers) [Product 164]: the Emax was 26% and the IC50 is > 10 µM.
Turning to `CCOc1cccc(C(C)N2CCCC(Cc3cc(C)nc(C)c3)C2)n1` (single isomer, unassigned) [Product 50], the Emax worked out at 16% and the IC50 is > 10 µM.
The like results for `Cc1cc(C[C@H]2CCCN(C(C)c3nc(OC4CCC4)ccc3F)C2)cc(C)n1` (single isomer, unassigned) [Product 55] were, in that order, 97% and 0.302 µM.
As to `CCNc1cc(CN2CCC[C@H](Cc3cc(C)nc(C)c3)C2)n[nH]1` [Product 2], the Emax was 93% and the IC50 was 1.05 µM.
Regarding `CC(=O)Nc1cc([C@@H](C)N2CCC[C@H](Cc3cc(C)nc(C)c3)C2)n[nH]1` [Product 4], the “Enzymatic Emax (%)” value turned out to be 100% and the “Enzymatic hOGA; pIC50” value was 6.61.
In the case of `CC(=O)N(C)c1cc(CN2CCC[C@H](Cc3cc(C)nc(C)c3)C2)n[nH]1` [Product 10], the Emax came out at 90% and the IC50 was 1.32 µM.
Regarding `CC(=O)Nc1cc(CN2CCC[C@H](Cc3cc(C)nc(C)c3)C2)n(C)n1` [Product 11], the Emax was 90% and the IC50 was 1.35 µM.
On to `CC(=O)Nc1[nH]nc([C@@H](C)N2CCC[C@H](Cc3cc(C)nc(C)c3)C2)c1C` [Product 12], for which the “Enzymatic Emax (%)” value was determined as 36% and the “Enzymatic hOGA; pIC50” value was <5.
The like results for `CC(=O)Nc1[nH]nc([C@H](C)N2CCC[C@H](Cc3cc(C)nc(C)c3)C2)c1C` [Product 13] were, in that order, 7% and <5.
The like results for `CCOc1cc([C@@H](C)N2CCC[C@H](Cc3cc(C)nc(C)c3)C2)n[nH]1` [Product 15] were, in that order, 65% and 5.27.
With `CCOc1nc(CN2CCC[C@H](Cc3cc(C)nc(C)c3)C2)c(Br)[nH]1` [Product 22], the Emax came to 63% and the IC50 is 6.61 µM.
The matching figures for `Cc1cc(C[C@H]2CCCN(Cc3c[nH]c(C)n3)C2)cc(C)n1` [Product 25]: 82% and 3.02 µM.
In the case of `CCOc1ncc(CN2CCC[C@H](Cc3cc(C)nc(C)c3)C2)s1` [Product 26], the Emax worked out at 71% and the IC50 was 4.57 µM.
The like results for `CC(=O)Nc1cc(CN2CCC[C@H](Cc3cc(C)nc(C)c3)C2)cs1` [Product 27] were, in that order, 89% and 1.05 µM.
The matching figures for `CC(=O)Nc1ccnc(CN2CCC[C@H](Cc3cc(C)nc(C)c3)C2)c1` [Product 31]: 63% and 6.46 µM.
The like results for `CC(=O)Nc1ccnc(C(C)N2CCC[C@H](Cc3cc(C)nc(C)c3)C2)c1` (stereo partly drawn) [Product 32] were, in that order, 95% and 0.49 µM.
`COc1ccc(F)c([C@@H](C)N2CCC[C@H](Cc3cc(C)nc(C)c3)C2)n1` [Product 41]: the “Enzymatic Emax (%)” value stood at 44% and the “Enzymatic hOGA; pIC50” value is listed as <5.
The matching figures for `COc1cccc([C@@H](C)N2CCC[C@H](Cc3cc(C)nc(C)c3)C2)n1` [Product 46]: 12% and <5.
The matching figures for `CCOc1cccc([C@@H](C)N2CCC[C@H](Cc3cc(C)nc(C)c3)C2)n1` [Product 51]: 102% and 7.01.
The matching figures for `Cc1cc(C[C@H]2CCCN([C@H](C)c3nc(OC4CCC4)ccc3F)C2)cc(C)n1` [Product 54]: 10% and <5.
Regarding `COc1ccc(C)c([C@@H](C)N2CCC[C@H](Cc3cc(C)nc(C)c3)C2)n1` [Product 57], the “Enzymatic Emax (%)” value amounted to 6% and the “Enzymatic hOGA; pIC50” value is reported as <5.
The matching figures for `COc1ccc(C)c([C@H](C)N2CCC[C@H](Cc3cc(C)nc(C)c3)C2)n1` [Product 58]: 96% and 6.1.
For `Cc1cc(C[C@H]2CCCN([C@@H](C)c3cccc(C4CC4)n3)C2)cc(C)n1` [Product 60], the “Enzymatic Emax (%)” value turned out to be 88% and the “Enzymatic hOGA; pIC50” value is reported as 5.81.
On to `CC(=O)Nc1cc(CN2CCC[C@H](Cc3cc(C)nc(C)c3)C2)cnn1` [Product 62], for which the Emax came out at 94% and the IC50 was 0.513 µM.
`COc1cc(C[C@H]2CCCN(C(C)c3nc(OC)ccc3F)C2)cc(C)n1` (stereo partly drawn) [Product 69]: the IC50 is 0.0759 µM. Also, the “Enzymatic Emax (%)” value (listed as 69) amounted to 103%.
Consider `COc1ccc(F)c(C(C)N2CCC[C@H](Cc3cc(C)nc(C(F)(F)F)c3)C2)n1` (stereo partly drawn) [Product 71], for which the Emax came to 104% and the IC50 was 0.0891 µM.
